Results: patent US20100256145A1, “USE OF KCNQ POTASSIUM CHANNEL OPENERS FOR REDUCING SYMPTOMS OF OR TREATING DISORDERS OR CONDITIONS WHEREIN THE DOPAMINERGIC SYSTEM IS DISRUPTED” (H. LUNDBECK A/S, priority 2007, published 2010)
Marks after values point to notes of the source that are not given here.

Legend:
[1] = system: social behaviours in the Mutual Resident Intruder rat test; test: Mutual Resident Intruder rat test; conditions: for % of time Agonistic behaviour: sum of defensive and aggressive behaviour
Description: (§1) Subjects. 5 week old male Wistar rats (Harlan, Germany) were used. The animals were housed in groups of four animals per cage and kept under a 12 h/12 h light dark rhythm (start of the dark phase at 2:00 p.m., CET), at 20° C. room temperature and 60% humidity. During the whole study, standard diet and tap water was provided ad libitum.
(§2) Experimental procedure. […] Therefore, half of the cage is the home territory of each animal. At test time, the wall is removed from the cage so that the animals can interact with each other for 15 minutes. Both animals are from the same test group. The cage is illuminated by dim red light. The test starts 1 hour after beginning of the dark phase. All animals are marked individually by means of black symbols on their back. Behaviour is registered by video. Each animal is tested once.
(§3) Analyses. In both the TE test and the MRI test, the portion of time (%) spent in non-social, friendly, defensive, aggressive or agonistic (sum of defensive and aggressive behaviour) behaviour was compared across the experimental groups against the relevant control group by means of Analysis of Variance (ANOVA) (one-factor).

[2] = system: conditioned avoidance response; test: Conditioned avoidance response in rats; type: in vivo, rat
Description: Subjects. Male Wistar rats (Taconic, Denmark) weighing 150 g at the beginning of the study are used. The rats are housed in pairs and maintained on a 12 h light/dark cycle (lights on 06:00). The animals are fed once daily (approx. 6 pellets/rat) in order to keep the rats at 80% of their free-feeding weight. Water is available ad libitum. Temperature (21±1° C.) and relative humidity (55±5%) are automatically controlled.
Experimental procedure. Conditioned avoidance testing is conducted using four automated shuttle-boxes (ENV-010M, MED-Associates) each placed in a sound-attenuated chamber. Each box is divided into two compartments by a partition with an opening. The position of the animal and crossings from one compartment to the other are detected by two photocells placed on either side of the dividing wall. Upon presentation of the conditioned stimuli (CS), tone and light, the animals have 10s to cross to the other compartment of the shuttle-box in order to turn the CS off (end the trial) and avoid the appearance of the unconditioned stimulus (UCS). If the rat remains in the same compartment for more than 10s, the UCS is presented as 0.5 mA scrambled foot-shocks until escape is performed or 10s in maximal duration. The following behavioural variables are evaluated: avoidance (response to CS within 10s); escape (reponse to CS+UCS); escape failures (failure to respond); intertrial crosses and locomotor activity. The rats are habituated to the shuttle-box 3 min before each test session. During training each test session consists of 30 trials with intertrial intervals varying randomly between 20s and 30s. Training is carried out until the rats display an avoidance of 80% or more, on 3 consecutive days. A test is preceded by a pre-test the day before giving rise to a baseline value for each animal, thus the animals serve as their own control. Seven to eight rats are used at each dose level. A parallel control group receiving the vehicle of the test compound is also included.
Administration of compound. […] All compounds are dissolved in a vehicle of 10% 2-hydroxy-propyl-beta-cyclodextrin (isotonic with glucose, pH 5-7).
Statistical analyses. The effects of compounds on avoidance and escape failure behaviours are statistically evaluated by means of two-way repeated measures ANOVA followed by post hoc comparisons (Student-Newman-Keuls Method) when appropriate. P-levels <0.05 are considered statistically significant.

[3] = system: social behaviours in the rat Tetradic Encounter test; test: Rat Tetradic Encounter test; conditions: for % of time Agonistic behaviour: sum of defensive and aggressive behaviour
Description: as §1, §2, §3

baseline motility = test: Baseline motility in mice (vehicle-pretreated, vehicle-challenged); type: in vivo, mouse; conditions: s.c., Std. Dev. in brackets
Description: Subjects. Male NMRI mice (Charles River) weighing approx. 35 g are used. […] 12 mice are used pr experimental group.
Experimental procedure. All mice are pre-treated once daily for five days with either d-amphetamine sulphate (2.5 mg/kg s.c.) or saline (10 ml/kg). For the 17 days between the last day of pre-treatment and the test day, the animals are kept in their homecage receiving the care as described above. The experiment is performed under normal light conditions in an undisturbed room. The mice are treated with test substance or vehicle and placed individually in the test cages for 30 min. The mice are then challenged with D-amphetamine sulphate (1.25 mg/kg s.c.) or saline (5 ml/kg) and replaced in the test-cage and data acquisition is begun. 5×8 infrared light sources and photocells interspaced by 4 cm monitor the locomotor activity. The light beams cross the cage 1.8 cm above the bottom of the cage.
Administration of compounds.
Data analyses. […] Similarly an ED50 for inhibiting baseline motility is calculated by expressed the motility response in vehicle-pretreated, vehicle-challenged, drug-treated animals relative to the baseline motility response. A therapeutic index value is subsequently calculated by dividing the first ED50 by the second.

basal locomotor activity = test: Basal locomotor activity inhibition (motility inhibition) in the rat; type: in vivo; conditions: basal locomotor activity without stimulant (sedative properties), std. dev. in brackets
Description: Subjects. Male Wistar rats (Taconic, Denmark) weighing 170-240 g are used. The animals are housed under a 12-hr light/dark cycle under controlled conditions for regular in-door temperature (21±2° C.) and humidity (55±5%) with food and tap water available ad libitum.
Experimental procedure. The experiment is made in normal light conditions in an undisturbed room. […] Immediately after injection of the stimulant, the rats are placed individually in the test cages that are placed in a U-frame, equipped with 4 infrared light sources and photocells. The light beams cross the cage 4 cm above the cage floor. Recording of a motility count requires interruption of adjacent light beams, thus avoiding counts induced by stationary movements of the rat. Motility (counts) is recorded for a period of 2 hours. […] The 100 percent effect of stimulant drug is accordingly calculated to be total motility counts minus baseline. […] The percent responses are converted to percent inhibition from which ED50 values are calculated by means of log-probit analyses. In a parallel set of data, the potential sedative properties (exemplified by basal locomotor activity inhibition) of the test compounds are evaluated using essentially the same procedure with the exception of not administering the stimulant drug at the initiation of locomotor assessment.

[4] = system: dopaminergic neurons in the ventral tegmental area; test: Spontaneous DA cell firing in the VTA of anaesthetised rats (extracellular single-cell recordings); conditions: mean ± SEM
Description: Subjects. Male Wistar rats (Harlan, The Netherlands) weighing 270-340 g are used. The animals are housed under a 12-hr light/dark cycle under controlled conditions for regular in-door temperature (21±2° C.) and humidity (55±5%) with food and tap water available ad libitum.
Administration of compound. […] These i.v. doses match the s.c. dose range of 0-10 mg/kg.
Statistical analysis. Drug effects are assessed by statistical comparison of the mean firing rate calculated from the 2-3 min period immediately before the first drug administration (baseline) to the mean firing rate calculated from at least 60 s at the maximal drug effect. Data are analysed statistically by a one-way analysis of variance (ANOVA) followed by Student-Newman-Keuls post hoc test. A p-value less than 0.05 is considered significant.

[5] = target: T1, noradrenergic α1A receptor (UniProt P18130); test: 3H-Prazosin binding assay, receptor expressed in baby hamster kidney cells; conditions: read-out: Ki, affinity towards noradrenergic α1A receptors
T1 sequence (P18130 1-466): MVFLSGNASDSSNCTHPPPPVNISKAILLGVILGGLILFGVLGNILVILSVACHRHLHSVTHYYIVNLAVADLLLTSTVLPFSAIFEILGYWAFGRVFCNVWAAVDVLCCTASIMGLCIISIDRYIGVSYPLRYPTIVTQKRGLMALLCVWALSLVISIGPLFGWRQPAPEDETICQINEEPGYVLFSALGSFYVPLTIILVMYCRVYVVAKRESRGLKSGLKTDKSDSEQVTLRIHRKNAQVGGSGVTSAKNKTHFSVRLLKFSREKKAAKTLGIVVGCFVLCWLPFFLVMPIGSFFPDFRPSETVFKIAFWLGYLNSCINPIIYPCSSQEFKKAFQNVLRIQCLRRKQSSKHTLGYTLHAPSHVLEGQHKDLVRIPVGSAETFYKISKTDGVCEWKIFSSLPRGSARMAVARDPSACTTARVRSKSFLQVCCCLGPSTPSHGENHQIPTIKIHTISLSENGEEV

[6] = 2 mg/kg s.c. 30 min before test
[7] = 10 mg/kg s.c. 30 min before test
[8] = Rattus norvegicus, sc, read-out: % inhibition of avoidance (Std. dev.) Relative to baseline

For `CCOC(=O)Nc1ccc(NCc2ccc(F)cc2)cc1N` [Compound 1, reference compound], the “% of time Aggressive behaviour” value [1, 6] was 16.1 % of time, the “% of time Defensive behaviour” value [1, 6] was 16.3 % of time and the “% of time Friendly behaviour” value [1, 6] was 3.4 % of time. For the same compound, the “% of time Non-social behaviour” value [1, 6] was 64.2 % of time, the “% of time Agonistic behaviour” value [1, 6] was 32.4 % of time and the “% of time Aggressive behaviour” value [1, 7] was 4.2*** % of time. The “% of time Defensive behaviour” value [1, 7] was 3.6*** % of time, the “% of time Friendly behaviour” value [1, 7] was 4.9* % of time and the “% of time Non-social behaviour” value [1, 7] was 87.3*** % of time. For the same compound, the “% of time Agonistic behaviour” value [1, 7] was 7.8*** % of time, the inhibition at 5 mg/kg [2, 8] was 1% and the inhibition at 10 mg/kg [2, 8] was 59%. For the same compound, the “Escape failures (effect on motor performance)” value ([2]; rats, all tested doses (2.5-10 mg/kg s.c.), data not shown) was “None of the tested doses cause any incidences of escape failures”, the “% of time Aggressive behaviour” value [3, 6] was 5.2 % of time and the “% of time Defensive behaviour” value [3, 6] was 7.2 % of time. The “% of time Friendly behaviour” value [3, 6] was 21.9 % of time, the “% of time Non-social behaviour” value [3, 6] was 65.7 % of time and the “% of time Agonistic behaviour” value [3, 6] was 12.4 % of time. For the same compound, the “% of time Aggressive behaviour” value [3, 7] was 2.4 % of time, the “% of time Defensive behaviour” value [3, 7] was 3.7* % of time and the “% of time Friendly behaviour” value [3, 7] was 24.7 % of time. For the same compound, the “% of time Non-social behaviour” value [3, 7] was 69.2 % of time, the “% of time Agonistic behaviour” value [3, 7] was 6.1* % of time and the “Inhibition of baseline motility, ED50” value (baseline motility) was 7.6 (1.3) mg/kg. The “Motility inhibition ED50 (mg/kg) ± std. dev.” value (basal locomotor activity) was greater than 8.1 mg/kg, the “Spontaneous DA cell firing rate in the VTA” value ([4]; cumulated dose 0.3 mg/kg i.v.) was 95.4 ± 5.0 (4) percentage of baseline firing rate and the “Spontaneous DA cell firing rate in the VTA” value ([4]; cumulated dose 1.0 mg/kg i.v.) was 90.5 ± 4.6 (5) percentage of baseline firing rate. The “Spontaneous DA cell firing rate in the VTA” value ([4]; cumulated dose 2.0 mg/kg i.v.) was 81.1 ± 5.1 (5) percentage of baseline firing rate, the “Spontaneous DA cell firing rate in the VTA” value ([4]; cumulated dose 4.0 mg/kg i.v.) was 67.1 ± 3.7 (4) percentage of baseline firing rate and the “Spontaneous DA cell firing rate in the VTA” value ([4]; cumulated dose 6.0 mg/kg i.v.) was 60.6 ± 0.7 (2) percentage of baseline firing rate. It also gave a Ki [5] of 2000 nM.
